What was measured:
[1] = mice
[2] = system: bleomycin-induced pulmonary fibrosis mouse model; assay: Anti-fibrosis effect in bleomycin-induced pulmonary fibrosis mouse model (micro-CT, weight, lung wet weight); assay type: in vivo
Description: (§1) C57BL/6J mice (20±2 g, female) were purchased from Beijing Life River Experimental Animal Technology Co., Ltd, and were housed in specific pathogen-free animal facilities. For the induction of fibrosis, mice were treated with 100 μL of bleomycin (with concentration of 1 mg/mL) at a dose of 5 mg/Kg via tracheal intubation.
(§2) After two weeks of bleomycin administration, mice were divided into four groups. In the RLX@PMs group, porous microspheres loaded with RLX were administered at a single dose of 70 μg/mouse (including RLX) to each mouse via nebulization. Similarly, in the RLX-free group, the RLX-free solution was administered via nebulization at a dose of 5 μg/mouse daily for two weeks. In addition, a blank control group only nebulized with PBS (PBS group) was also set up. Pirfenidone was used as a positive control, and was administered via intragastric gavage to mice at a dose of 300 mg/kg daily for two weeks (PFD group). The weight of mice was recorded once every two days.
For further examination, after anesthesia, whole-lung imaging was performed using a micro-computed tomography (micro-CT) imaging system for small animals (scanning parameters: scan resolution, 18 μm; voltage, 70 kV; current, 100 μA). After treatment, all mice were euthanized and tissues were collected for further analysis, and lung coefficient was calculated by the wet weight of lungs.

[3] = system: bleomycin-induced pulmonary fibrosis mouse model; assay: Lung histopathology: H&E, Masson trichrome and Sirius red staining; assay type: in vivo, C57BL/6J mice
Description: as §1, §2
In addition to in vivo imaging examination, we also used hematoxylin and eosin (H&E) staining, Masson's trichrome staining and Sirius red staining to detect the histological changes and collagen deposition in the lungs according to the manufacturer's instructions. After the mice were euthanized, the whole lung tissues were collected and fixed in 4% paraformaldehyde overnight. Subsequently, the tissues were subjected to gradient dehydration according to the standard procedure and embedded with paraffin. The lung tissues of mice were embedded in paraffin and cut into 3 μm sections, followed by H&E staining. […] The stained sections were imaged using a VS120 virtual slide microscope, and the severity of interstitial fibrosis was evaluated at 100× magnification by measuring the percentage of blue stained area. […] After staining, the stained sections were scanned by a polarization microscope, and the degree of collagen deposition in the lung was evaluated based on the image. All collagen density data were quantified by ImageJ software.

| site of deposition (lung versus gastrointestinal tract), fluorescence signals ([1]; nebulized inhalation, in vivo imaging) | time until fluorescence signals disappeared completely ([1]; single inhalation) | SMILES | lung structure / fibrosis by micro-CT ([2]; after 4 weeks of treatment) | mortality ([2]; bleomycin mice, PFD 300 mg/kg daily, intragastric) | weight change of mice ([2]; weight recorded every two days) | collagen accumulation / deposition (Masson trichrome staining) ([3]; fibrosis around bronchi, versus PBS group) | airway remodeling, angiogenesis and parenchymal inflammation (lung histopathology) ([3]; increased by bleomycin exposure) | therapeutic effect on collagen deposition (Sirius red staining) ([3]; polarization microscope) |
| --- | --- | --- | --- | --- | --- | --- | --- | --- |
| higher | ≤ 2 weeks | CCN(CC)c1ccc2c(-c3ccccc3C(=O)O)c3ccc(=[N+](CC)CC)cc-3oc2c1 [rhodamine B-free, rhodamine B] | – | – | – | – | – | – |
| – | – | Cc1ccc(=O)n(-c2ccccc2)c1 [Pirfenidone] | a certain degree of fibrosis | died within three weeks | progressive weight loss | lower than that of the PBS group | attenuated these effects | slight therapeutic effect |

Source: US20250235507A1, “INHALABLE POROUS MICROSPHERE LOADED WITH RECOMBINANT HUMAN RELAXIN-2 AND PREPARATION METHOD THEREFOR” (SHANDONG UNIVERSITY, priority 2023, published 2025)
